As usually defined, the IC50 is the concentration at which inhibition is half-maximal.

Structures are written as SMILES.

This passage reports IC50 results from patent publication US8088815B2, “Spiroindolinone pyrrolidines” (Hoffman-La Roche Inc., priority 2009, dated 2012).

The target of the assay is interaction between p53 and MDM2 proteins (Homo sapiens, UniProt Q00987). Kind of assay: HTRF assay of inhibition of the p53-MDM2 interaction (GST-MDM2 / biotinylated p53 peptide). The class given is binding. Conditions: recombinant GST-tagged MDM2 and biotinylated p53 peptide, bsa:0.02%. (In general: TR-FRET usually uses a lanthanide donor and a delayed reading to cut background.)
Chain of interaction between p53 and MDM2 proteins (Q00987 whole entry): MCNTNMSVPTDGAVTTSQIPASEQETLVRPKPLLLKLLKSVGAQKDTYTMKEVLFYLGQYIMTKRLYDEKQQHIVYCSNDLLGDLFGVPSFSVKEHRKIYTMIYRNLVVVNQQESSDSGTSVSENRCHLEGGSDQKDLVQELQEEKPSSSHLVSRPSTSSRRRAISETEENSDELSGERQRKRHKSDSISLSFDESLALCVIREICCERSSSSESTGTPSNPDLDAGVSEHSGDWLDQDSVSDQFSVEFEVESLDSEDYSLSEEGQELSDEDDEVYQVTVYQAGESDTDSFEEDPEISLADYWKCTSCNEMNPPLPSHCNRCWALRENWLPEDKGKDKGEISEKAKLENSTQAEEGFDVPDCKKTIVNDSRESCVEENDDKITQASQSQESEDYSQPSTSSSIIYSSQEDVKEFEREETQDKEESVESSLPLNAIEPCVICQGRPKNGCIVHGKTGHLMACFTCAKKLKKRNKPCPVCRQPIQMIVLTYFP
As to `CC(C)(CO)C[C@@H]1N[C@@H](C(=O)Nc2ccc(C(N)=O)cc2)[C@H](c2cccc(Cl)c2F)[C@]12C(=O)Nc1cc(Cl)ccc12` (racemic) [Example 106, rac-(2′S,3′R,4′S,5′R)-6-chloro-4′-(3-chloro-2-fluoro-phenyl)-2′-(3-hydroxy-2,2-dimethyl-propyl)-2-oxo-1,2-dihydro-spiro[indole-3,3′-pyrrolidine]-5′-carboxylic acid (4-carbamoyl-phenyl)-amide], the IC50 stood at 9 nM.

With `CC(C)(C)C[C@@H]1N[C@@H](C(=O)Nc2ccc(NCC(=O)O)cc2)[C@H](c2cccc(Cl)c2F)[C@]12C(=O)Nc1cc(Cl)ccc12` (racemic) [Example 218, rac-(4-{[(2′S,3′R,4′S,5′R)-6-chloro-4′-(3-chloro-2-fluoro-phenyl)-2′-(2,2-dimethyl-propyl)-2-oxo-1,2-dihydro-spiro[indole-3,3′-pyrrolidine]-5′-carbonyl]amino}-phenylamino)-acetic acid], the IC50 amounted to 16 nM.

Regarding `COc1cc(N2CC(C)OC(C)C2)ccc1NC(=O)[C@@H]1N[C@@H](CC(C)(C)C)[C@@]2(C(=O)Nc3cc(Cl)ccc32)[C@H]1c1cccc(Cl)c1F` (mixture of isomers) [Example 144, rac-(2′S,3′R,4′S,5′R)-6-chloro-4′-(3-chloro-2-fluoro-phenyl)-2′-(2,2-dimethyl-propyl)-2-oxo-1,2-dihydro-spiro[indole-3,3′-pyrrolidine]-5′-carboxylic acid [4-(2,6-dimethyl-morpholin-4-yl)-2-methoxy-phenyl]-amide], the IC50 turned out to be 19 nM.

With `COC(=O)c1ccc(NC(=O)[C@@H]2N[C@@H](CC(C)(C)C)[C@@]3(C(=O)Nc4cc(Cl)ccc43)[C@H]2c2cccc(Cl)c2F)s1` (racemic) [Example 14, rac-5-{[(2′S,3′R,4′S,5′R)-6-chloro-4′-(3-chloro-2-fluoro-phenyl)-2′-(2,2-dimethyl-propyl)-2-oxo-1,2-dihydro-spiro[indole-3,3′-pyrrolidine]-5′-carbonyl]amino}-thiophene-2-carboxylic acid methyl ester], the IC50 stood at 22 nM.

With `COc1cc(C(N)=O)ccc1NC(=O)[C@@H]1N[C@@H](CC(C)(C)C)[C@@]2(C(=O)Nc3cc(Cl)ccc32)[C@H]1c1cccc(Br)c1F` (racemic) [Example 117, rac-(2′S,3′R,4′S,5′R)-4′-(3-bromo-2-fluoro-phenyl)-6-chloro-2′-(2,2-dimethyl-propyl)-2-oxo-1,2-dihydro-spiro[indole-3,3′-pyrrolidine]-5′-carboxylic acid (4-carbamoyl-2-methoxy-phenyl)-amide], the IC50 was 7 nM.

Consider `CC(C)(C)C[C@@H]1N[C@@H](C(=O)Nc2ccn(CCO)n2)[C@H](c2cccc(Cl)c2F)[C@]12C(=O)Nc1cc(Cl)ccc12` (racemic) [Example 44, rac-(2′S,3′R,4′S,5′R)-6-chloro-4′-(3-chloro-2-fluoro-phenyl)-2′-(2,2-dimethyl-propyl)-2-oxo-1,2-dihydro-spiro[indole-3,3′-pyrrolidine]-5′-carboxylic acid [1-(2-hydroxy-ethyl)-1H-pyrazol-3-yl]-amide], for which the IC50 was 10 nM.

In the case of `CC(C)(C)C[C@@H]1N[C@@H](C(=O)Nc2ccc(C#N)cc2)[C@H](c2cccc(Cl)c2F)[C@]12C(=O)Nc1cc(Cl)cc(F)c12` (racemic) [Example 72, rac-(2′S,3′R,4′S,5′R)-6-chloro-4′-(3-chloro-2-fluoro-phenyl)-2′-(2,2-dimethyl-propyl)-4-fluoro-2-oxo-1,2-dihydro-spiro[indole-3,3′-pyrrolidine]-5′-carboxylic acid (4-cyano-phenyl)-amide], the IC50 was found to be 22 nM.

For `COc1cc(C#N)ccc1NC(=O)[C@@H]1N[C@@H](CC(C)(C)C)[C@@]2(C(=O)Nc3cc(Cl)ccc32)[C@H]1c1cc(F)cc(Cl)c1` (racemic) [Example 114, rac-(2′S,3′R,4′R,5′R)-6-chloro-4′-(3-chloro-5-fluoro-phenyl)-2′-(2,2-dimethyl-propyl)-2-oxo-1,2-dihydro-spiro[indole-3,3′-pyrrolidine]-5′-carboxylic acid (4-cyano-2-methoxy-phenyl)-amide], the IC50 was determined as 12 nM.

Consider `COc1cc(C(N)=O)ccc1NC(=O)[C@@H]1N[C@@H](CC(C)(C)C)[C@@]2(C(=O)Nc3cc(Cl)ccc32)[C@H]1c1cccc(Cl)c1` (racemic) [Example 67, rac-(2′S,3′R,4′R,5′R)-6-chloro-4′-(3-chloro-phenyl)-2′-(2,2-dimethyl-propyl)-2-oxo-1,2-dihydro-spiro[indole-3,3′-pyrrolidine]-5′-carboxylic acid (4-carbamoyl-2-methoxy-phenyl)-amide], for which the IC50 worked out at 10 nM.

In the case of `CNc1cc(C(=O)O)ccc1NC(=O)[C@@H]1N[C@@H](CC(C)(C)C)[C@@]2(C(=O)Nc3cc(Cl)ccc32)[C@H]1c1cccc(Cl)c1F` (racemic) [Example 167, rac-4-{[(2′S,3′R,4′S,5′R)-6-chloro-4′-(3-chloro-2-fluoro-phenyl)-2′-(2,2-dimethyl-propyl)-2-oxo-1,2-dihydro-spiro[indole-3,3′-pyrrolidine]-5′-carbonyl]-amino}-3-methylamino-benzoic acid], the IC50 is 10 nM.

In the case of `COc1cc(N2CCOCC2)ccc1NC(=O)[C@@H]1N[C@@H](CC(C)(C)C)[C@@]2(C(=O)Nc3cc(Cl)ccc32)[C@H]1c1cccc(Cl)c1F` (racemic) [Example 143, rac-(2′S,3′R,4′S,5′R)-6-chloro-4′-(3-chloro-2-fluoro-phenyl)-2′-(2,2-dimethyl-propyl)-2-oxo-1,2-dihydro-spiro[indole-3,3′-pyrrolidine]-5′-carboxylic acid (2-methoxy-4-morpholin-4-yl-phenyl)-amide], the IC50 was 15 nM.

On to `COc1cc(C(N)=O)ccc1NC(=O)[C@@H]1N[C@@H](CC(C)(C)C)[C@@]2(C(=O)Nc3cc(Cl)cc(F)c32)[C@H]1c1cccc(Cl)c1F` [Example 77, chiral (2′S,3′R,4′S,5′R)-6-chloro-4′-(3-chloro-2-fluoro-phenyl)-2′-(2,2-dimethyl-propyl)-4-fluoro-2-oxo-1,2-dihydro-spiro[indole-3,3′-pyrrolidine]-5′-carboxylic acid (4-carbamoyl-2-methoxy-phenyl)-amide], for which the IC50 is 5 nM.

As for `COc1cc(C#N)ccc1NC(=O)[C@@H]1N[C@@H](CC(C)(C)C)[C@@]2(C(=O)Nc3cc(Cl)ccc32)[C@H]1c1cccc(Cl)c1F` (racemic) [Example 58, rac-(2′S,3′R,4′S,5′R)-6-chloro-4′-(3-chloro-2-fluoro-phenyl)-2′-(2,2-dimethyl-propyl)-2-oxo-1,2-dihydro-spiro[indole-3,3′-pyrrolidine]-5′-carboxylic acid (4-cyano-2-methoxy-phenyl)-amide], the IC50 was 23 nM.

With `CCOC(=O)CNc1ccc(NC(=O)[C@@H]2N[C@@H](CC(C)(C)C)[C@@]3(C(=O)Nc4cc(Cl)ccc43)[C@H]2c2cccc(Cl)c2F)cc1` (racemic) [Example 217, rac-(4-{[(2′S,3′R,4′S,5′R)-6-chloro-4′-(3-chloro-2-fluoro-phenyl)-2′-(2,2-dimethyl-propyl)-2-oxo-1,2-dihydro-spiro[indole-3,3′-pyrrolidine]-5′-carbonyl]-amino}-phenylamino)-acetic acid ethyl ester], the IC50 worked out at 13 nM.

Turning to `CC(C)(C)C[C@@H]1N[C@@H](C(=O)Nc2cccc(C(N)=O)c2)[C@H](c2cccc(Cl)c2F)[C@]12C(=O)Nc1cc(Cl)ccc12` (racemic) [Example 33, rac-(2′S,3′R,4′S,5′R)-6-chloro-4′-(3-chloro-2-fluoro-phenyl)-2′-(2,2-dimethyl-propyl)-2-oxo-1,2-dihydro-spiro[indole-3,3′-pyrrolidine]-5′-carboxylic acid (3-carbamoyl-phenyl)-amide], the IC50 turned out to be 13 nM.

In the case of `COc1cc(OC2CCOCC2)ccc1NC(=O)[C@@H]1N[C@@H](CC(C)(C)C)[C@@]2(C(=O)Nc3cc(Cl)ccc32)[C@H]1c1cccc(Cl)c1F` [Example 157, chiral (2′S,3′R,4′S,5′R)-6-chloro-4′-(3-chloro-2-fluoro-phenyl)-2′-(2,2-dimethyl-propyl)-2-oxo-1,2-dihydro-spiro[indole-3,3′-pyrrolidine]-5′-carboxylic acid [2-methoxy-4-(tetrahydro-pyran-4-yloxy)-phenyl]-amide], the IC50 turned out to be 10 nM.

As for `CC(C)(C)C[C@@H]1N[C@@H](C(=O)Nc2ccc(F)cc2)[C@H](c2cccc(Cl)c2F)[C@]12C(=O)Nc1cc(Cl)ccc12` (racemic) [Example 13, rac-(2′S,3′R,4′S,5′R)-6-chloro-4′-(3-chloro-2-fluoro-phenyl)-2′-(2,2-dimethyl-propyl)-2-oxo-1,2-dihydro-spiro[indole-3,3′-pyrrolidine]-5′-carboxylic acid (4-fluoro-phenyl)-amide], the IC50 worked out at 19 nM.

For the compound `COc1cc(CC(=O)OC(C)(C)C)ccc1NC(=O)[C@@H]1N[C@@H](CC(C)(C)C)[C@@]2(C(=O)Nc3cc(Cl)ccc32)[C@H]1c1cccc(Cl)c1F` [Example 159, chiral (4-{[(2′S,3′R,4′S,5′R)-6-chloro-4′-(3-chloro-2-fluoro-phenyl)-2′-(2,2-dimethyl-propyl)-2-oxo-1,2-dihydro-spiro[indole-3,3′-pyrrolidine]-5′-carbonyl]amino}-3-methoxy-phenyl)-acetic acid tert-butyl ester], the IC50 is 14 nM.

As for `COc1cc(NC(=O)[C@@H]2N[C@@H](CC(C)(C)C)[C@@]3(C(=O)Nc4cc(Cl)ccc43)[C@H]2c2cccc(Cl)c2F)ccc1C(=O)O` (racemic) [Example 16, rac-4-{[(2′S,3′R,4′S,5′R)-6-chloro-4′-(3-chloro-2-fluoro-phenyl)-2′-(2,2-dimethyl-propyl)-2-oxo-1,2-dihydro-spiro[indole-3,3′-pyrrolidine]-5′-carbonyl]-amino}-2-methoxy-benzoic acid], the IC50 turned out to be 10 nM.

For `CC(C)(C)C[C@@H]1N[C@@H](C(=O)Nc2ccc(C(N)=O)s2)[C@H](c2cccc(Cl)c2F)[C@]12C(=O)Nc1cc(Cl)ccc12` (racemic) [Example 188, rac-(2′S,3′R,4′S,5′R)-6-chloro-4′-(3-chloro-2-fluoro-phenyl)-2′-(2,2-dimethyl-propyl)-2-oxo-1,2-dihydro-spiro[indole-3,3′-pyrrolidine]-5′-carboxylic acid (5-carbamoyl-thiophen-2-yl)-amide], the IC50 was determined as 8 nM.
